Reference: patent US20240327401A1, “FUSED RING COMPOUND, PHARMACEUTICAL COMPOSITION, AND APPLICATION THEREOF” (EVOPOINT BIOSCIENCES CO., LTD., priority 2021, published 2024)

How the values were obtained:
[1] = system: ERK phosphorylation in DLD-1 cells; experiment: In-cell Western blot assay for ERK phosphorylation in DLD-1 cells; assay type: cell-based; settings: Homo sapiens, p-ERK signal corrected using DMSO and BI-3406, four-parameter fit
Protocol: Efficacy Example 1: In-cell Western Blot Assay for ERK Phosphorylation in DLD-1 Cells
DLD-1 cells (ATCC, CCL-221) were thawed and cultured in a culture medium containing RPMI1640 (Gibco, A10491-01), 10% fetal bovine serum (FBS) (Transgene, FS201-02) and 1% antibiotic P/S (Gibco, 15140-122) for 3 days until the cell viability was good. The cells were inoculated into a 384-well plate and incubated at 37° C. with 5% CO2 overnight. A test compound, a positive control compound, and a negative control were added. The compound was at concentrations of 10000 nM to 1.52 nM (3-fold dilution) and […], for a total of 10 concentrations. The mixture was well mixed and incubated at 37° C. with 5% CO2. The cells were washed twice with PBS (Solarbio, P1010), and then a blocking buffer was added. After 1 h of blocking at room temperature, a primary antibody mixture (phospho-p44/42 MAPK (T202/Y204) Rabbit mAb (CST, […]), GAPDH (D4C6R) Mouse mAb) (CST, 97166S) was added, followed by overnight incubation at 4° C. The cells were washed 3 times with PBST (PBS containing 0.05% Tween-20 (Solarbio, T8220)), and a secondary antibody mixture (goat anti rabbit 800CW (LI-COR, 926-32211), goat anti mouse 680RD (LI-COR, 926-68070)) was added, followed by incubation at room temperature in the dark. The 384-well plate was reversed and centrifuged at 1000 rpm for 1 min, and read on an Odyssey CLx fluorescence imaging system (LI-COR) to obtain fluorescence signal values, which were corrected using DMSO and BI-3406.
[formula] • H=Ave (DMSO) • L=Ave (BI-3406) • SD (H)=STDEV (DMSO) • SD (L)=STDEV (BI-3406)
The IC50 values of the compounds were calculated using a four-parameter fitting algorithm, specifically as follows:
[formula] • X: Log of cpd concentration • Y: Ave (relative pERK) • Top and Bottom: Plateaus in same units as Y • log IC50: same log units as X • HillSlope: Slope factor or Hill slope.

[2] = molecular target: T1, SOS1/KRAS G12C protein binding (Homo sapiens, UniProt Q07889); experiment: Inhibition of SOS1/KRAS G12C protein binding (665 nm/615 nm ratio); settings: 15 nM KRAS G12C (aa 1-169), 2.5 nM His-SOS1 (aa 564-1049); nonlinear regression
T1 construct: His-SOS1 (aa 564-1049) protein; purchased Pharmaron Beijing Co., Ltd. 20200717 (His-SOS1); 20200707 (KRAS G12C)
T1 sequence (Q07889 564-1049): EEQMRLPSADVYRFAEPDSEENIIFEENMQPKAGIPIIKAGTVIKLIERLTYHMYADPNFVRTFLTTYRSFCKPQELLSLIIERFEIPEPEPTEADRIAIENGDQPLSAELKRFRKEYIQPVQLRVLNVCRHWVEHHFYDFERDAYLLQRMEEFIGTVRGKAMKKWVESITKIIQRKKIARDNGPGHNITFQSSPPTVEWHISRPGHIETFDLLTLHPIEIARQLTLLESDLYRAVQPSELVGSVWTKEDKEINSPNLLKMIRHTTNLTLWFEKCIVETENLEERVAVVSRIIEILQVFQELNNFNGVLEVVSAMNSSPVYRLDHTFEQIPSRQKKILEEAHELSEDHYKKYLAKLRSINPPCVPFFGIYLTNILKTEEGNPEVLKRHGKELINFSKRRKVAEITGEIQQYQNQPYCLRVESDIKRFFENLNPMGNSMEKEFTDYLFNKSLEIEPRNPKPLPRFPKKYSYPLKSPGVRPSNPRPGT
Protocol: Efficacy Example 2: Evaluation of Inhibition of SOS1/KRAS G12C Protein Binding
A test compound was dissolved in 100% DMSO to give a solution at a concentration of 10 mM. 10 μL of the solution was taken and 3-fold diluted with 100% DMSO to prepare test compound solutions with concentrations of 10000 nM to […], for a total of 11 concentrations. The compound solutions at different concentrations were then transferred to a 384-well plate at 0.1 μL/well using a sonic droplet device Echo (Labcyte), and 2 replicate wells were set for each concentration.
A 15 nM KRAS G12C (aa 1-169) protein (Pharmaron Beijing Co., Ltd., 20200707) was transferred to the 384-well reaction plate at 5 μL/well using the sonic droplet device Echo (Labcyte), and then the reaction plate was centrifuged in a centrifuge (Eppendorf, 5810R) at 1000 rpm/min for 1 min.
A 2.5 nM His-SOS1 (aa 564-1049) protein (Pharmaron Beijing Co., Ltd., 20200717) was transferred to the 384-well reaction plate at 5 μL/well using the sonic droplet device Echo (Labcyte), and then the reaction plate was centrifuged in a centrifuge (Eppendorf, 5810R) at 1000 rpm/min for 1 min and incubated at 25° C. for 15 min.
A mixed solution of Antibody 1 (MAb Anti-6his-Tb cryptate Gold, Cisbio, 61HI2TLA) and Antibody 2 (MAb Anti-GST-XL665, Cisbio, 61GSTXLA) was transferred to the 384-well reaction plate at 10 μL/well using the sonic droplet device Echo (Labcyte), and then the reaction plate was centrifuged in a centrifuge (Eppendorf, 5810R) at 1000 rpm/min for 1 min and incubated at 25° C. for 120 min.
The 665 nm/615 nm optical density ratio was read using an Envision multifunctional microplate reader (Perkin Elmer, Envision 2104).
Analysis of Original Data:
The IC50 values of the compounds were fitted by a nonlinear regression equation of Graphpad Prism 8. The results are shown in Table 2: • Negative control: DMSO
The IC50 (half maximal inhibitory concentration) values of the compounds were calculated using the following non-linear fitting equation:
[formula] • X: Log of cpd concentration • Y: 665 nm/615 nm ratio

| SMILES | IC50 [1] [µM] | IC50 [2] [µM] |
| --- | --- | --- |
| CSc1c(=O)n(C2(C(F)F)CC2)cc2c(N[C@H](C)c3cccc(C(F)F)c3F)nc(C)nc12 [SZ-022306] | 0.213 | 0.0125 |
| Cc1nc(N[C@H](C)c2cccc(C(F)F)c2F)c2cn(C3(C(F)F)CC3)c(=O)c(OCC(F)(F)F)c2n1 [SZ-022312] | 0.601 | 0.0179 |
| [2H]C([2H])([2H])Oc1c(=O)n(C2(C(F)F)CC2)cc2c(N[C@H](C)c3cccc(C#N)c3C)nc(C)nc12 [SZ-022382] | 0.729 | 0.00886 |
| CCOc1c(=O)n(C2(C)CC2)cc2c(N[C@H](C)c3cccc(C(F)(F)F)c3C)nc(C)nc12 [SZ-022341] | 0.161 | 0.00776 |
| COc1c(=O)n(C2(CF)CC2)cc2c(N[C@H](C)c3cccc(C(F)F)c3F)nc(C)nc12 [SZ-022301] | 0.262 | 0.0065 |
| COc1c(=O)n(C2(C(F)F)CC2)cc2c(N[C@H](C)c3ccc(-c4ccccc4CN(C)C)s3)nc(C)nc12 [SZ-022373] | 0.042 | 0.0014 |
| COc1c(=O)n(C2(C)CC2)cc2c(N[C@H](C)c3cccc(C(F)F)c3F)nc(C)nc12 [SZ-022300] | 0.412 | 0.0121 |
| COc1c(=O)n(C2(C(F)F)CC2)cc2c(N[C@H](C)c3cccc(C(F)(F)F)c3)nc(C)nc12 [SZ-022348] | 0.614 | 0.0218 |
| Cc1nc(N[C@H](C)c2cccc(C(F)F)c2F)c2cn(C3(C(F)F)CC3)c(=O)c(OCC(F)F)c2n1 [SZ-022368] | 0.249 | 0.0235 |
| COc1c(=O)n(C2(C(F)F)CC2)cc2c(N[C@H](C)c3cccc4c3OCC4(F)F)nc(C)nc12 [SZ-022330] | 0.117 | 0.00502 |
| COCC1(n2cc3c(N[C@H](C)c4cccc(C(F)F)c4F)nc(C)nc3c(OC)c2=O)CC1 [SZ-022346] | 1.02 | 0.03 |
| CCOc1c(=O)n(C2(C(F)F)CC2)cc2c(N[C@H](C)c3cccc(C(C)(F)F)c3F)nc(C)nc12 [SZ-022338] | 0.334 | 0.0121 |
| CCOc1c(=O)n(C2(CF)CC2)cc2c(N[C@H](C)c3cccc(C(F)(F)F)c3C)nc(C)nc12 [SZ-022342] | 0.057 | 0.00715 |
| COc1c(=O)n(C2(C(F)F)CC2)cc2c(N[C@H](C)c3cccc(C(F)(F)C(C)(C)O)c3F)nc(C)nc12 [SZ-022317] | 0.371 | 0.00454 |
| CCOc1c(=O)n(C2(C(F)F)CC2)cc2c(N[C@H](C)c3cccc(C(F)F)c3F)nc(C)nc12 [SZ-022296] | 0.143 | 0.00943 |
| [2H]C([2H])([2H])Oc1c(=O)n(C2(C(F)F)CC2)cc2c(N[C@H](C)c3cccc(C(F)F)c3F)nc(C)nc12 [SZ-022295] | 0.256 | 0.00815 |
| COc1c(=O)n(C2(C)CC2)cc2c(N[C@H](C)c3cccc(C(C)(F)F)c3F)nc(C)nc12 [SZ-022356] | 0.218 | 0.00436 |
| COc1c(=O)n(C2(C(F)F)CC2)cc2c(N[C@H](C)c3cccc(C#N)c3C)nc(C)nc12 [SZ-022381] | 0.741 | 0.0123 |
| Cc1nc(N[C@H](C)c2cccc(C(F)F)c2F)c2cn(C3(C(F)F)CC3)c(=O)c(S(C)(=O)=O)c2n1 [SZ-022307] | 0.253 | 0.0259 |
| COc1c(=O)n(C2(C(F)F)CC2)cc2c(N[C@H](C)c3cccc(C(F)(F)F)c3C)nc(C)nc12 [SZ-022304] | 0.079 | 0.00698 |
| [2H]C([2H])([2H])Oc1c(=O)n(C2(C(F)F)CC2)cc2c(N[C@H](C)c3cccc(C(C)(F)F)c3F)nc(C)nc12 [SZ-022355] | 0.112 | 0.00247 |
| CCOc1c(=O)n(C2(C(F)(F)F)CC2)cc2c(N[C@H](C)c3cccc(C(C)(F)F)c3F)nc(C)nc12 [SZ-022360] | 0.221 | 0.00946 |
| COc1c(=O)n(C2(C(F)F)CC2)cc2c(N[C@H](C)c3cccc(C(F)F)c3C)nc(C)nc12 [SZ-022302] | 0.104 | 0.00379 |
